Where a SMILES comes first, the peptide text is derived from it. The star is where a group is joined. Cbz = O=C(OCc1ccccc1)*
B1: dn-XBP: dominant negative XBP-1 containing the N-terminal 188 aa, lacking transactivation domain, retaining leucine zipper (protein)
chain: MVVVAAAPSAATAAPKVLLLSGQPASGGRALPLMVPGPRAAGSEASGTPQARKRQRLTHLSPEEKALRRKLKNRVAAQTARDRKKARMSELEQQVVDLEEENHKLQLENQLLREKTHGLVVENQELRTRLGMDTLDPDEVPEVEAKGSGVRLVAGSAESAAGAGPVVTSPEHLPMDSDTVASSDSESD

Assays:
[1] = system: J558 myeloma cells; experiment: Apoptosis of J558 myeloma cells (Annexin V staining); assay type: cell-based; conditions: for apoptosis, combination of Tm and MG-132: J558, 18 hrs, suboptimal concentrations
Method: (A) BiP and CHOP induction was examined by northern blot analysis after treating NIH3T3 or J558 myeloma cells with either MG-132 (20 μM), Tm (10 μg/ml) or both. Cells were pretreated with MG-132 for 1 hr and then further treated with Tm for 4 hrs. Ethidium bromide staining of the gel is shown at the bottom. (B) Inhibition of caspase-12 processing by proteasome inhibitors. Processing of full-length caspase-12 was examined by Western blotting in J558 myeloma cells treated with thapsigargin (1 μM) or PIs (20 μM) during the indicated time periods. (C) Alteration in the ratio of XBP-1 protein species in J558 cells were treated with increasing amounts of MG-132 for 16 hrs. Cells undergoing apoptosis were counted by Annexin V staining. (D) Time course of the XBP-1s to XBP-1u shift. Cells were treated with MG-132 (1 μM) for the indicated times and XBP-1u and spliced protein levels and cell death determined. (E) Alteration in the ratio of XBP-1 species in the MM.1s human myeloma line. Cells were treated with PS-341 (8 nM) in a time course analysis and XBP-1 protein species quantified.
(A) Synergistic effect of Tm and MG-132 on apoptosis. Annexin V positive cells were counted after treating J558 cells for 18 hrs with suboptimal concentrations of Tm and MG-132 as indicated. (B) J558-iXBP cells were generated by retroviral transduction of J558 cells with the U6 promoter based XBP-1 RNAi vector. (C) XBP-1 dependent gene expression in J558 cells that express control GFP, dn-XBP or iXBP-1 treated with Tm. Generation of dn-XBP-1 J558 cells by infection with a retrovirus containing dn-XBP cDNA inserted into the GFP-RV vector (N. N. lwakoshi et al., Nature Immunology 4, 321-329 (2003)). ERdj4, p58^IPK, BiP and CHOP gene expression were examined by Northern blot analysis. (D) Increased apoptosis in iXBP-1 and dn-XBP-1 expressing J558 cells. Cells were treated with the indicated amounts of Tm for 48 hrs and dead cells counted after Annexin V staining.
Cells were stained with annexin V-PE (BD PharMingen, San Jose, Calif.) as recommended and analyzed on a FACScan flow cytometer (Becton Dickinson, San Jose, Calif.).

[2] = system: IRE1α-mediated XBP-1 mRNA splicing; experiment: XBP-1 mRNA level and splicing in J558 cells (Northern blot, RT-PCR); assay type: cell-based; conditions: for XBP-1 mRNA splicing, agent alone (RT-PCR) / overall levels of XBP-1 RNA (Northern blot): J558 cells
Method: (A) XBP-1 mRNA levels in ER stressed J558 cells treated with Tm for 4 hrs in the absence or presence of MG-132. Cells were pretreated with MG-132 for 1 hr before adding Tm. XBP-1 mRNA levels were determined by Northern blot analysis. […] (C) Effect of a panel of PIs on XBP-1 splicing. Cells were treated with Tm for 4 hrs in the absence or presence of MG-132 (10 μM), PS-341 (10 μM), Lactacystin (10 μM), ZL3VS (50 μM) or AdaAhxL3VS (50 μM), and XBP-1 mRNA splicing measured by RT-PCR analysis. (D) IRE-1α phosphorylation in NIH3T3 cells were treated with Tm as indicated after 2 hrs of pretreatment with MG-132 (10 μM).
Total RNA was prepared by using Trizol reagent, electrophoresed on 1.2% agarose, 6% formaldehyde gels and then transferred onto Genescreen Plus membrane, (NEN, Boston, Mass.). […] Probes for ERdj4 and p58^IPK were generated from cDNA excised from EST clones (ATCC, Manassas, Va.) using appropriate restriction enzymes (ERdj4, IMAGE: 1920927; p58^IPK, IMAGE:2646147).

Row | Molecule | apoptosis, combination of Tm and MG-132 [1] | apoptosis in J558 cells ([1]; agent alone) | effect on Tm-induced XBP-1 mRNA splicing ([2]; J558, Tm 4 hrs, MG-132 10 μM, PS-341 10 μM, ZL3VS 50 μM, AdaAhxL3VS 50 μM) | XBP-1 mRNA splicing, agent alone (RT-PCR) [2] | overall levels of XBP-1 RNA (Northern blot) [2] | apoptosis upon Tm treatment compared to control GFP-transduced cells ([1]; transduced J558 cells, Tm 48 hrs) | cell proliferation or viability at baseline ([1]; transduced J558 cells, no Tm)
1 | CC(C)C[C@@H](C=O)NC(=O)[C@H](CC(C)C)NC(=O)[C@H](CC(C)C)NC(=O)OCc1ccccc1 [MG-132] (Cbz-Leu-Leu-Leu-aldehyde) | synergistically induced apoptosis | induced apoptosis in J558 cells | suppressed by MG-132 in a dose dependent manner | did not induce any XBP-1mRNA splicing | not significantly altered |  | 
2 | tunicamycin [Tm] | synergistically induced apoptosis |  |  | markedly induced XBP-1 mRNA splicing | not significantly altered |  | 
3 | B1 |  |  |  |  |  | significantly increased apoptosis | No effect on cell proliferation or viability

Reference: patent US20040170622A1, “Methods and compositions for modulating XBP-1 activity” (President and Fellows of Harvard College, priority 2002, published 2004)
